Laboratory results published in ChEMBL document CHEMBL3259623, “A mixed population of antagonist and agonist binding conformers in a single crystal explains partial agonism against vitamin D receptor: active vitamin D analogues with 22R-alkyl group” (J Med Chem, 2014).

Biological target: T1, Vitamin D3 receptor (Homo sapiens, UniProt P11473)
T1 sequence (P11473 whole entry): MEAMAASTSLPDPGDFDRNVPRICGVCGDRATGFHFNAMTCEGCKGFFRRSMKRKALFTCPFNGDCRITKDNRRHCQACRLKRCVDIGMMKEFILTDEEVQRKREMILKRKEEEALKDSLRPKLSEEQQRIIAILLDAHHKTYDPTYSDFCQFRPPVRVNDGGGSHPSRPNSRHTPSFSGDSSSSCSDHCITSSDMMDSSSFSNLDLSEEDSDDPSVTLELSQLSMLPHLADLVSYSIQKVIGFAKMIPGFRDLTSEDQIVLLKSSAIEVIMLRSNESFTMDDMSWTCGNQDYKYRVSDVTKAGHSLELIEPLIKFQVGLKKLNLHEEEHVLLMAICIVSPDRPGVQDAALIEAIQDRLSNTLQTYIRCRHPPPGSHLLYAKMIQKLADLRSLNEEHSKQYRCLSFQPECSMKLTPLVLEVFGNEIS
Description: Displacement of [3H]-1-alpha,25-dihydroxyvitamin D3 from N-terminal GST-tagged human recombinant VDR LBD expressed in Escherichia coli Rosetta2 (DE3) after 16 hrs

Row | IC50 [nM] | Compound
1 | 0.26 | C=C1[C@H](O)CC(=C/C=C2\CCC[C@]3(C)[C@@H]([C@H](C)[C@@H](CCO)CCCC)CC[C@@H]23)C[C@H]1O
2 | 2.87 | C=C1[C@H](O)CC(=C/C=C2\CCC[C@]3(C)[C@@H]([C@H](C)[C@H](CC)CCO)CC[C@@H]23)C[C@H]1O
3 | 0.12 | C=C1[C@H](O)CC(=C/C=C2\CCC[C@]3(C)[C@@H]([C@H](C)[C@H](CCCC)CC(C)(C)O)CC[C@@H]23)C[C@H]1O
4 | 1.55 | C=C1[C@H](O)CC(=C/C=C2\CCC[C@]3(C)[C@@H]([C@H](C)[C@H](CC)CC(C)(C)O)CC[C@@H]23)C[C@H]1O
5 | 0.89 | C=C1[C@H](O)CC(=C/C=C2\CCC[C@]3(C)[C@@H]([C@H](C)[C@H](CCCC)CCCO)CC[C@@H]23)C[C@H]1O
6 | 7.16 | C=C1[C@H](O)CC(=C/C=C2\CCC[C@]3(C)[C@@H]([C@H](C)[C@H](CC)CCCO)CC[C@@H]23)C[C@H]1O
7 | 0.29 | C=C1[C@H](O)CC(=C/C=C2\CCC[C@]3(C)[C@@H]([C@H](C)[C@H](CCCC)CCC(C)(C)O)CC[C@@H]23)C[C@H]1O
8 | 2.39 | C=C1[C@H](O)CC(=C/C=C2\CCC[C@]3(C)[C@@H]([C@H](C)[C@H](CC)CCC(C)(C)O)CC[C@@H]23)C[C@H]1O
9 | 1.79 | C=C1[C@H](O)CC(=C/C=C2\CCC[C@]3(C)[C@@H]([C@H](C)[C@H](CCCC)CC(O)(CC)CC)CC[C@@H]23)C[C@H]1O
10 | 1.55 | C=C1[C@H](O)CC(=C/C=C2\CCC[C@]3(C)[C@@H]([C@H](C)[C@H](CC)CC(O)(CC)CC)CC[C@@H]23)C[C@H]1O
